The target in one test is biuret hydrolase (BiuH) (Herbaspirillum sp. BH-1, UniProt A0A2N6JFV5). Nature of the test: ammonia release, Berthelot reaction. Type of test: biochemical. As to conditions: pH […], sodium phosphate; turnover.
Test [1] has as its system guanylurea hydrolase (GuuH). Nature of the test: ammonia release, Berthelot reaction. It counts as biochemical, Ectopseudomonas mendocina. The note with it: read-out: Exptl determination; 125 mM sodium phosphate, pH 8.0 (optimum), room temperature.

Chain of biuret hydrolase (BiuH) (A0A2N6JFV5 1-231): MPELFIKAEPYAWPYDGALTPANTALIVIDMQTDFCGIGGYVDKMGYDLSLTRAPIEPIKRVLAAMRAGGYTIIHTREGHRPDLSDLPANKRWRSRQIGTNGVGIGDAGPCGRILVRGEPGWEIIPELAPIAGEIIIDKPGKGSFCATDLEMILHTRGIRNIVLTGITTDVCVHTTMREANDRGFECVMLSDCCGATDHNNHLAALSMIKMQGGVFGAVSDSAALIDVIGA

Turning to `NC(=O)NC(N)=O` [biuret], the activity result on biuret hydrolase (BiuH) is reported as “diminished activity with biuret compared to that of the wild type”. In the case of `N=C(N)NC(N)=O` [guanylurea], in test [1], the Km was 16 µM.

The record behind these values is paper PMC8208167 (Applied and Environmental Microbiology, 2021).
